ChEMBL document CHEMBL1146829, “Acetylene-based analogues of thiolactomycin, active against Mycobacterium tuberculosis mtFabH fatty acid condensing enzyme” (Bioorg Med Chem Lett, 2004)
pIC50: −log10 of the molar value.

assay: Inhibitory activity against recombinant Mycobacterium tuberculosis beta-ketoacyl-Acyl Carrier Protein synthase mtFabH condensing enzyme

Row | Compound | pIC50
1 | C#CCC1(C)SC(=O)C(C)=C1O (centres undefined) | 4.00
2 | COC(=O)c1ccc(C#CCC2(C)SC(O)=C(C)C2=O)cc1 (centres undefined) | 4.13
3 | CC(=O)c1ccc(C#CCC2(C)SC(O)=C(C)C2=O)cc1O (centres undefined) | 5.15
4 | CC1=C(O)C(C)(CC#Cc2ccccc2C#N)SC1=O (centres undefined) | 4.32
5 | CC1=C(O)C(C)(Cc2ccc(-c3ccc(COCc4ccccc4)cc3)cc2)SC1=O (centres undefined) | 4.77
6 | CC1=C(O)C(C)(CC#Cc2ccc([N+](=O)[O-])cc2)SC1=O (centres undefined) | 4.47
7 | CC1=C(O)C(C)(CC#Cc2ccc(C#N)cc2)SC1=O (centres undefined) | 5.15
8 | CC(=O)c1ccc(C#CCC2(C)SC(O)=C(C)C2=O)cc1 (centres undefined) | 5.40
9 | C=C/C(C)=C/[C@@]1(C)SC(=O)C(C)=C1O [THIOLACTOMYCIN] | 4.13
